Laboratory results as given in patent US20100285957A1, “THIAZOLYLOXYPHENYLAMIDINES OR THIADIAZOLYLOXYPHENYLAMIDINES AND THEIR USE AS FUNGICIDES” (Bayer CropScience AG, priority 2007, published 2010).
Read-outs that look alike come from different tables or passages of the source.

Experiments:
[1] = log P determination (neutral / acidic, pH 2.3)
Pyrenophora teres = Pyrenophora teres test (barley)/protective; type: in vivo; settings: 500 ppm active substance, protective, evaluation 7-9 days after inoculation, read-out: degree of effectiveness
Procedure: Pyrenophora teres Test (Barley)/Protective
(§1) To prepare a suitable active substance composition, 1 part by weight of active substance is mixed with the given amounts of solvent and emulsifier and the concentrate is diluted to the desired concentration using water.
For the testing of protective effectiveness, young barley plants are sprayed with the active substance composition in the application rate given. 1 day after the treatment, the plants are inoculated with an aqueous suspension of the spores of Pyrenophora teres and then remain at 100% relative humidity and 20° C. for 48 h. Subsequently, the plants are placed in a greenhouse at 80% relative humidity and a temperature of 20° C.
Evaluation is carried out 7-9 days after the inoculation. In this connection, 0% means a degree of effectiveness corresponding to that of the control, while a degree of effectiveness of 100% means that no infestation is observed.

Uromyces appendiculatus = assay: Uromyces test (beans)/protective; type: in vivo; settings: 240 h, 100 ppm active substance, protective, evaluation 10 days after inoculation, read-out: degree of effectiveness
Procedure: Uromyces Test (Beans)/Protective [table] To prepare a suitable active substance composition, 1 part by weight of active substance is mixed with the given amounts of solvents and emulsifier and the concentrate is diluted to the desired concentration using water. For the testing of protective effectiveness, young plants are sprayed with the active substance composition in the application rate given. After the spray coating has been dried on, the plants are inoculated with an aqueous suspension of the spores of the bean rust pathogen Uromyces appendiculatus and then remain in an incubation chamber at approximately 20° C. and 100% relative humidity for 1 day. The plants are then placed in a greenhouse at approximately 21° C. and a relative humidity of approximately 90%. Evaluation is carried out 10 days after the inoculation. In this connection, 0% means a degree of effectiveness corresponding to that of the control, while a degree of effectiveness of 100% means that no infestation is observed.

Phakopsora pachyrhizi = assay: Phakopsora test (soya)/protective; type: in vivo; settings: 264 h, 100 ppm active substance, protective, evaluation 11 days after inoculation, read-out: degree of effectiveness
Procedure: Phakopsora Test (Soya)/Protective
as §1
(§2) For the testing of protective effectiveness, young plants are sprayed with the active substance composition in the application rate given. After the spray coating has been dried on, the plants are inoculated with an aqueous suspension of the spores of Phakopsora pachyrhizi and then remain in an incubation chamber at approximately 20° C. and 80% relative humidity for 1 day.
Evaluation is carried out 11 days after the inoculation. In this connection, 0% means a degree of effectiveness corresponding to that of the control, while a degree of effectiveness of 100% means that no infestation is observed.

[2] = tested on: Blumeria graminis f.sp. hordei; assay: Blumeria graminis test (barley)/protective; type: in vivo; settings: 168 h, 1000 ppm active substance, protective, evaluation 7 days after inoculation, read-out: degree of effectiveness
Procedure: Blumeria graminis Test (Barley)/Protective
as §1
For the testing of protective effectiveness, young plants are sprayed with the active substance composition in the application rate given.
After the spray coating has been dried on, the plants are dusted with spores of Blumeria graminis f.sp. hordei.
The plants are placed in a greenhouse at a temperature of approximately 20° C. and a relative humidity of approximately 80%, in order to encourage the development of mildew pustules.
Evaluation is carried out 7 days after the inoculation. In this connection, 0% means a degree of effectiveness corresponding to that of the control, while a degree of effectiveness of 100% means that no infestation is observed.

Alternaria solani = assay: Alternaria test (tomato)/protective; type: in vivo; settings: 168 h, 500 ppm active substance, protective, evaluation 7 days after inoculation, read-out: degree of effectiveness
Procedure: Alternaria Test (Tomato)/Protective [table] To prepare a suitable active substance composition, 1 part by weight of active substance is mixed with the given amounts of solvent and emulsifier and the concentrate is diluted to the desired concentration using water. For the testing of protective effectiveness, young tomato plants are sprayed with the active substance composition in the application rate given. 1 day after the treatment, the plants are inoculated with a suspension of the spores of Alternaria solani and then stand at 100% relative humidity and 20° C. for 24 h. Subsequently, the plants stand at 96% relative humidity and a temperature of 20° C. Evaluation is carried out 7 days after the inoculation. In this connection, 0% means a degree of effectiveness corresponding to that of the control, while a degree of effectiveness of 100% means that no infestation is observed.

[3] = tested on: Puccinia recondita var. tritici; assay: Puccinia test (wheat)/protective; type: in vivo; settings: 240 h, 1000 ppm active substance, protective, evaluation 10 days after inoculation, read-out: degree of effectiveness
Procedure: Puccinia Test (Wheat)/Protective
as §1
For the testing of protective effectiveness, young plants are sprayed with the active substance composition in the application rate given. After the spray coating has been dried on, the plants are sprayed with a suspension of the conidia of Puccinia recondita var. tritici. The plants remain in an incubation chamber at 20° C. and 100% relative humidity for 48 hours.
The plants are then placed in a greenhouse at a temperature of approximately 20° C. and a relative humidity of 80%, in order to encourage the development of rust pustules.
Evaluation is carried out 10 days after the inoculation. In this connection, 0% means a degree of effectiveness corresponding to that of the control, while a degree of effectiveness of 100% means that no infestation is observed.

Sphaerotheca fuliginea = assay: Sphaerotheca test (cucumber)/protective; type: in vivo; settings: Podosphaera fuliginea, 168 h, 100 ppm active substance, protective, evaluation 7 days after inoculation, read-out: degree of effectiveness
Procedure: Sphaerotheca Test (Cucumber)/Protective [table] To prepare a suitable active substance composition, 1 part by weight of active substance is mixed with the given amounts of solvents and emulsifier and the concentrate is diluted to the desired concentration using water. For the testing of protective effectiveness, young plants are sprayed with the active substance composition in the application rate given. After the spray coating has been dried on, the plants are inoculated with an aqueous suspension of spores of Sphaerotheca fuliginea. The plants are then placed in a greenhouse at approximately 23° C. and a relative humidity of approximately 70%. Evaluation is carried out 7 days after the inoculation. In this connection, 0% means a degree of effectiveness corresponding to that of the control, while a degree of effectiveness of 100% means that no infestation is observed.

Cochliobolus miyabeanus = assay: Cochliobolus test (rice)/protective; type: in vivo; settings: 250 ppm active substance, protective, evaluation 4 days after inoculation
Procedure: Cochliobolus Test (Rice)/Protective
as §1
as §2, with “Cochliobolus miyabeanus” for “Phakopsora pachyrhizi”, “25°” for “20°”, “100%” for “80%”
Evaluation is carried out 4 days after the inoculation. In this connection, 0% means a degree of effectiveness corresponding to that of the control, while a degree of effectiveness of 100% means that no infestation is observed.

Row | Compound | log P acidic [1] | pest or weed control at 500 ppm (Pyrenophora teres) [%] | logP (physchem; pH 2.3) | pest or weed control at 100 ppm (Uromyces appendiculatus) [%] | pest or weed control at 100 ppm (Phakopsora pachyrhizi) [%] | pest or weed control at 1000 ppm [2] [%] | pest or weed control at 500 ppm (Alternaria solani) [%] | pest or weed control at 1000 ppm [3] [%] | pest or weed control at 100 ppm (Sphaerotheca fuliginea) [%] | also measured
1 | Cc1cc(Oc2nc(C3CC3)ns2)c(C)cc1/N=C/N1CCCCC1 [Compound 3, 4-[(3-Cyclopropyl-1,2,4-thiadiazol-5-yl)oxy]-2,5-dimethyl-N-[(1E)-piperidin-1-ylmethyl-idene]aniline] | 1.75 |  |  |  |  |  |  |  |  | 
2 | Cc1cc(Oc2nc(C3CC3)ns2)c(C)cc1/N=C/N1CCSCC1 [Compound 4, 4-[(3-Cyclopropyl-1,2,4-thiadiazol-5-yl)oxy]-2,5-dimethyl-N-[(1E)-thiomorpholin-4-ylmethyl-idene]aniline] | 1.73 |  |  |  |  |  |  |  |  | 
3 | Cc1cc(Oc2nc(C3(Cl)CC3)cs2)c(C)cc1/N=C/N1CCCCC1 [Compound 6, 4-{[4-(1-Chlorocyclopropyl)-1,3-thiazol-2-yl]oxy}-2,5-dimethyl-N-[(1E)-piperidin-1-ylmethyl-idene]aniline] |  |  |  |  |  |  |  |  |  | log P neutral ([1]; neutral): 5.49
4 | CCN(C)C=Nc1cc(C)c(Oc2nc(C3(C)CC3)ns2)cc1C [Compound 9, N′-(2,5-Dimethyl-4-{[3-(1-methylcyclopropyl)-1,2,4-thiadiazol-5-yl]oxy}phenyl)-N-ethyl-N-methylimidoformamide] |  | ≥ 70 | 1.94 | ≥ 70 | ≥ 80 | ≥ 70 | ≥ 70 | ≥ 70 | ≥ 70 | 
5 | Cc1cc(Oc2nc(C3(C)CC3)ns2)c(C)cc1/N=C/N1CCCCC1 [Compound 11, 5-Dimethyl-4-{[3-(1-methylcyclopropyl)-1,2,4-thiadiazol-5-yl]oxy}-N-[(1E)-piperidin-1-yl-methylidene]aniline] | 2.13 |  |  |  |  |  |  |  |  | 
6 | CCN(C)C=Nc1cc(C)c(Oc2nc(C3CC3C)ns2)cc1C (stereo not shown) [Compound 14, N′-(2,5-Dimethyl-4-{[3-(2-methylcyclopropyl)-1,2,4-thiadiazol-5-yl]oxy}phenyl)-N-ethyl-N-methylimidoformamide] |  | ≥ 70 | 1.96 | ≥ 70 | ≥ 80 | ≥ 70 | ≥ 70 | ≥ 70 | ≥ 70 | 
7 | Cc1cc(Oc2nc(C3CC3C)ns2)c(C)cc1N=CN(C)C(C)C (stereo not shown) [Compound 15, N′-(2,5-Dimethyl-4-{[3-(2-methylcyclopropyl)-1,2,4-thiadiazol-5-yl]oxy}phenyl)-N-methyl-N-(1-methylethyl)imidoformamide] |  | ≥ 70 | 1.74 | ≥ 70 | ≥ 80 | ≥ 70 | ≥ 70 | ≥ 70 | ≥ 70 | 
8 | CCN(C)C=Nc1cc(C)c(Oc2nc(C3(C)CC3)c(Cl)s2)cc1C [Compound 21, N′-(4-{[5-Chloro-4-(1-methylcyclopropyl)-1,3-thiazol-2-yl]oxy}-2,5-dimethylphenyl)-N-ethyl-N-methylimidoformamide] |  | ≥ 70 | 1.97 | ≥ 70 | ≥ 80 | ≥ 70 | ≥ 70 | ≥ 70 | ≥ 70 | logP (physchem): 6
9 | Cc1cc(Oc2nc(C3(C)CC3)cs2)c(C)cc1/N=C/N1CCCCC1 [Compound 23, 2,5-Dimethyl-4-{[4-(1-methylcyclopropyl)-1,3-thiazol-2-yl]oxy}-N-[(1E)-piperidin-1-ylmethyl-idene]aniline] | 2.05 |  |  |  |  |  |  |  |  | 
10 | CCN(C)C=Nc1cc(C)c(Oc2nc(C3(C)CC3(Cl)Cl)ns2)cc1C (stereo not shown) [Compound 25, N′-(4-{[3-(2,2-Dichloro-1-methylcyclopropyl)-1,2,4-thiadiazol-5-yl]oxy}-2,5-dimethylphenyl)-N-ethyl-N-methylimidoformamide] |  | ≥ 70 | 2.03 | ≥ 70 | ≥ 80 |  | ≥ 70 |  | ≥ 70 | degree of effectiveness (Cochliobolus miyabeanus): ≥ 80%
11 | [5-Chloro-4-(1-methylcyclopropyl)-1,3-thiazol-2-yl]oxy-2,5-dimethylaniline |  |  |  |  |  |  |  |  |  | log P (pH 2.3): 4.13
